Measurements: patent US9120791B2, “Indolizine compounds, a process for their preparation and pharmaceutical compositions containing them” (LES LABORATOIRES SERVIER, priority 2012, dated 2015)
Counter-ions that a name gives are not always drawn. Like-named read-outs stand apart in the source and are kept apart here.

Columns and labels:
[1] = system: RS4;11 leukaemia tumour line; test: In vitro cytotoxicity (Microculture Tetrazolium Assay, 48 hours); format: cell-based; settings: RS4;11 cells, 48 hours exposure, MTT, concentration that inhibits cell viability by 50%, read-out: IC50 (nM) MTT RS4
Description: The cytotoxicity studies were carried out on the RS4;11 leukaemia tumour line.
The cells are distributed onto microplates and exposed to the test compounds for 48 hours.

caspase 3 = test: Induction of caspase activity in vivo (DEVDase activity in tumour lysates, RS4;11 xenograft); set-up: species or system mice (SCID strain); settings: oral treatment, 16 hours after treatment, RS4;11 xenograft in SCID mice; for Activation factor (versus control), DEVDase activity in the tumours / fold induction at 50 mg/kg: 50 mg/kg
Description: The ability of the compounds of the invention to activate caspase 3 is evaluated in a xenograft model of RS4;11 leukaemia cells.
1×10^7 RS4;11 cells are grafted sub-cutaneously into immunosuppressed mice (SCID strain). 25 to 30 days after the graft, the animals are treated orally with the various compounds. Sixteen hours after treatment, the tumour masses are recovered and lysed, and the caspase 3 activity is measured in the tumour lysates.
This enzymatic measurement is carried out by assaying the appearance of a fluorigenic cleavage product (DEVDase activity, Promega). It is expressed in the form of an activation factor corresponding to the ratio between the two caspase activities:the activity for the treated mice divided by the activity for the control mice.

Bcl-2 protein = Bcl-2 protein (Homo sapiens (Human), UniProt P10415); test: Inhibition of Bcl-2 by the fluorescence polarisation technique; format: binding; settings: fluorescence polarisation test; concentration that inhibits fluorescence polarisation by 50%; read-out: IC50 (nM) Bcl-2 FP
Description: The fluorescence polarisation tests were carried out on microplates (384 wells). […] After incubation for 2 hours, the fluorescence polarisation is measured.

[2] = Mus musculus, read-out: Activation factor (versus control), DEVDase activity in the tumours

Sequence of Bcl-2 protein (P10415 whole entry): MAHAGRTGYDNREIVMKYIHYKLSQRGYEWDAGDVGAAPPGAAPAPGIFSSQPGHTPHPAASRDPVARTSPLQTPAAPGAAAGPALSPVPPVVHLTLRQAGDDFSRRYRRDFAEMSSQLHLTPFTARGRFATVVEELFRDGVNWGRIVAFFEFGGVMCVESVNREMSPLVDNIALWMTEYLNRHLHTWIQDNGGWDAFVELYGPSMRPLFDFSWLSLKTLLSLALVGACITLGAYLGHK

| Structure (SMILES) | IC50 (Bcl-2 protein) [nM] | IC50 [1] [nM] | Activation factor (versus control), DEVDase activity in the tumours (caspase 3) | IC50 ([1]; Homo sapiens) [nM] | fold induction at 50 mg/kg (caspase 3; [2]) | fold induction at 100 mg/kg (caspase 3; Mus musculus, 100 mg/kg, read-out: Activation factor (versus control), DEVDase activity in the tumours) |
| --- | --- | --- | --- | --- | --- | --- |
| Cl.O=C(c1cc(-c2cc3c(cc2C(=O)N2Cc4ccccc4C[C@H]2CN2CCOCC2)OCO3)n2c1CCCC2)N(c1ccc(O)cc1)c1ccc(Cl)cc1 [Example 3, N-(4-Chlorophenyl)-N-(4-hydroxyphenyl)-3-{6-[((3S)-3-(4-morpholinylmethyl)-3,4-dihydro-2(1H)-isquinolinyl)carbonyl]-1,3-benzdioxol-5-yl}-5,6,7,8-tetrahydro-1-indolizine carboxamide hydrochloride] | – | 44.7 | 5.7 (50 mg/kg) | – | – | – |
| Cn1ccc2cc(N(C(=O)c3cc(-c4cc5c(cc4C(=O)N4Cc6ccccc6C[C@H]4CN4CCOCC4)OCO5)n4ccccc34)c3ccc(O)cc3)ccc21 [Example 59, N-(4-Hydroxyphenyl)-N-(1-methyl-1H-indol-5-yl)-3-{6-[((3S)-3-(4-morpholinylmethyl)-3,4-dihydro-2(1H)-isoquinolinyl)carbonyl]-1,3-benzodioxol-5-yl}-1-indolizine carboxamide hydrochloride] | 13 | – | – | 8.13 | 23 | – |
| Cn1ccc2cc(N(C(=O)c3cc(-c4cc(Cl)ccc4C(=O)N4Cc5ccccc5C[C@H]4CN4CCOCC4)n4ccccc34)c3ccc(O)cc3)ccc21 [Example 67, 3-{5-Chloro-2-[((3S)-3-(4-morpholinylmethyl)-3,4-dihydro-2(1H)-isoquinolinyl)carbonyl]phenyl}-N-(4-hydroxyphenyl)-N-(1-methyl-1H-indol-5-yl)-1-indolizine carboxamide hydrochloride] | 24 | – | – | 17.7 | 18.9 | – |
| Cl.O=C(c1cc(-c2cc3c(cc2C(=O)N2Cc4ccccc4C[C@H]2CN2CCOCC2)OCO3)n2ccccc12)N(c1ccccc1)c1ccc(O)cc1 [Example 58, N-(4-Hydroxyphenyl)-3-{6-[((3S)-3-(4-morpholinylmethyl)-3,4-dihydro-2(1H)-isoquinolinyl)carbonyl]-1,3benzodioxol-5-yl}-N-phenyl-indolizine carboxamide hydrochloride] | – | 40.1 | 23.3 (50 mg/kg) | – | – | – |
| Cc1ccc(N(C(=O)c2cc(-c3cc4c(cc3C(=O)N3Cc5ccccc5C[C@H]3CN3CCOCC3)OCO4)n3c2CCCC3)c2ccc(O)cc2)cc1 [Example 2, N-(4-Hydroxyphenyl)-N-(4-methylphenyl)-3-{6-[((3S)-3-(4-morpholinylmethyl)-3,4-dihydro-2(1H)-isoquinolinyl)carbonyl]-1,3-benzodioxol-5-yl}-5,6,7,8-tetrahydro-1-indolizine carboxamide hydrochloride] | 20 | – | – | 49.8 | – | 27.8 |
| CN1CCc2cc(N(C(=O)c3cc(-c4cc(Cl)ccc4C(=O)N4Cc5ccccc5C[C@H]4CN4CCOCC4)n4c3CCCC4)c3ccc(O)cc3)ccc21 [Example 23, 3-{5-Chloro-2-[((3S)-3-(4-morpholinylmethyl)-3,4-dihydro-2(1H)-isoquinolinyl)carbonyl]phenyl}-N-(4-hydroxyphenyl)-N-(1-methyl-2,3-dihydro-1H-indol-5-yl)-5,6,7,8-tetrahydro-1-indolizine carboxamide bis(hydrochloride)] | 14 | – | – | 23 | 22.7 | – |
| Cl.[2H]C1([2H])Oc2cc(C(=O)N3Cc4ccccc4C[C@H]3CN3CCOCC3)c(-c3cc(C(=O)N(c4ccc(O)cc4)c4ccc5c(cnn5C)c4)c4n3CCCC4)cc2O1 [Example 50, N-(4-Hydroxyphenyl)-N-(1-methyl-1H-indazol-5-yl)-3-{2,2-dideuterio-6-[((3S)-3-(4-morpholinylmethyl)-3,4-dihydro-2(1H)-isoquinolinyl)carbonyl]-1,3-benzodioxol-5-yl}-5,6,7,8-tetrahydro-1-indolizine carboxamide hydrochloride] | 13 | – | – | 4.01 | – | – |
| O=C(c1cc(-c2cc(Cl)ccc2C(=O)N2Cc3ccccc3C[C@H]2CN2CCOCC2)n2c1CCCC2)N(c1ccc(O)cc1)c1ccc(F)c(F)c1 [Example 118, 3-(5-Chloro-2-{[(3S)-3-(morpholin-4-ylmethyl)-3,4-dihydroisoquinolin-2(1H)-yl]carbonyl}phenyl)-N-(3,4-difluorophenyl)-N-(4-hydroxyphenyl)-5,6,7,8-tetrahydroindolizine-1-carboxamide hydrochloride] | 15 | – | – | 71 | – | – |

Continued, in another order:

| IC50 (Bcl-2 protein) [nM] | Structure (SMILES) | IC50 [1] [nM] | Activation factor (versus control), DEVDase activity in the tumours (caspase 3) | IC50 ([1]; Homo sapiens) [nM] | fold induction at 50 mg/kg (caspase 3; [2]) | fold induction at 100 mg/kg (caspase 3; Mus musculus, 100 mg/kg, read-out: Activation factor (versus control), DEVDase activity in the tumours) |
| --- | --- | --- | --- | --- | --- | --- |
| 19 | Cc1ccc(N(C(=O)c2cc(-c3cc4c(cc3C(=O)N3Cc5ccccc5C[C@H]3CN3CCOCC3)OCO4)n3c2CCCC3)c2ccc(O)cc2)cc1F [Example 4, N-(3-Fluoro-4-methylphenyl)-N-(4-hydroxyphenyl)-3-{6-[((3S)-3-(4-morpholinylmethyl)-3,4-dihydro-2(1H)-isoquinolinyl)carbonyl]-1,3-benzodioxol-5-yl}-5,6,7,8-tetrahydro-1-indolizine carboxamide hydrochloride] | – | – | 27.1 | 29.2 | – |
| 15 | O=C(c1cc(-c2cc3c(cc2C(=O)N2Cc4ccccc4C[C@H]2CN2CCOCC2)OCO3)n2c1CCCC2)N(c1ccc(O)cc1)c1ccc2c(c1)CCN2 [Example 8, N-(2,3-Dihydro-1H-indol-5-yl)-N-[4-(hydroxy)phenyl]-3-{6-[((3S)-3-(4-morpholinylmethyl)-3,4-dihydro-2(1H)-isoquinolinyl)carbonyl]-1,3-benzodioxol-5-yl}-5,6,7,8-tetrahydro-1-indolizine carboxamide bis(hydrochloride)] | – | – | 25.6 | 9.8 | – |
| 27 | Cn1ccc2cc(N(C(=O)c3cc(-c4cc(Cl)ccc4C(=O)N4Cc5ccccc5C[C@H]4CN4CCOCC4)n4c3CCCC4)c3ccc(O)cc3)ccc21 [Example 22, 3-{5-Chloro-2-[((3S)-3-(4-morpholinylmethyl)-3,4-dihydro-2(1H)-isoquinolinyl)carbonyl]phenyl}-N-(4-hydroxyphenyl)-N-(1-methyl-1H-indol-5-yl)-5,6,7,8-tetrahydro-1-indolizine carboxamide hydrochloride] | – | – | 19.1 | 11.3 | – |
| 16 | CN1CCc2cc(N(C(=O)c3cc(-c4cc(Cl)ccc4C(=O)N4Cc5ccccc5C[C@H]4CN4CCOCC4)n4ccccc34)c3ccc(O)cc3)ccc21 [Example 66, 3-{5-Chloro-2-[((3S)-3-(4-morpholinylmethyl)-3,4-dihydro-2(1H)-isoquinolinyl)carbonyl]phenyl}-N-(4-hydroxyphenyl)-N-(1-methyl-2,3-dihydro-1H-indol-5-yl)-1-indolizine carboxamide bis(hydrochloride)] | – | – | 21.7 | 24.7 | – |
| 13 | CN1CCc2cc(N(C(=O)c3cc(-c4cc5c(cc4C(=O)N4Cc6ccccc6C[C@H]4CN4CCOCC4)OCO5)n4c3CCCC4)c3ccc(O)cc3)ccc21 [Example 9, N-[4-(Hydroxy)phenyl]-N-(1-methyl-2,3-dihydro-1H-indol-5-yl)-3-{6-[((3S)-3-(4-morpholinylmethyl)-3,4-dihydro-2(1H)-isoquinolinyl)carbonyl]-1,3-benzodioxol-5-yl}-5,6,7,8-tetrahydro-1-indolizine carboxamide hydrochloride] | – | – | 16.1 | 20.6 | – |
